Results as given in patent US20060121449A1, “Method for selection of compounds which inhibit clonal cell growth and use thereof” (priority 2002, published 2006).

Columns and labels:
[1] = tested on: BHK21/c13 (normal baby hamster kidney cells); assay: Clonal growth of normal BHK21/c13 cells in soft agar with growth factors (Exp 3, 6); format: cell-based; parameters: Clonal inhibition: unit not given here; details: for Clonal inhibition: BHK21/c13 + insulin
Procedure: This experiment used BHK21/c13 cells grown in the Falcon plates with 24 wells. Each well received 120000 cells seeded in a top layer of 0.3 ml with 0.8% ultra low gelling temperature agarose (type IX, Sigma). This layer was placed upon a 0.3 ml bottom layer with 3% of the same agarose. The medium contained Eagles MEM and RPMI 1640 with 10% foetal bovine serum. The medium was supplemented with either: 15% conditioned medium (from BHK21/c13 cultures), the serum extender Mito+ or 0.1 i.u. Insulin Actrapid (Novo) or with two or all three of these in combination.
Agar cultures were prepared in wells of 24 well Falcon tissue culture plate. […] The medium contained about equal amounts of Eagle and RPMI 1640 with 10% FBS. Insulin (Actrapid, Novo) was added in a concentration of 0.1 i.u./ml to BHK21/c13 cell cultures only.

HSV1 = HSV1 replication and cytopathogenicity in RK13 cells (Exp 11a, 11b); format: cell-based, Herpes virus type 1; details: for Coverage of the bottom read after 2 days / Cytopathogenicity read after 2 days: 11b, HSV 2 μl/well; for Coverage of the bottom read after 2 days: 1 g = 100% coverage of the bottom; for Cytopathogenicity read after 2 days: 1d is 100% degeneration
Procedure: RK13 cells and HSV1 v:11252 was obtained from Dr. G. Hoddevik, National Institute of Public Health, Oslo, Virus had been stored at −75° C.
The inoculated virus was not removed before the titration in the last experiment. This time, however, removal of inoculate was performed next day.
HSV-1 was added undiluted, but 4-OH-OPB was diluted in 50 μl medium. The row seeded with 2000 nl of HSV was titrated and read after 4 days:
This time the inhibition is 10 times better than before. The difference from 1st time was that the day after infecting cell cultures the medium was changed in order to get rid of remaining active HSV. In addition the original HSV 1 infected and treated cultures were incubated one day more, for 48 hours. The production of virus is then measured in titration of 4-fold dilution steps.

HSV2 = HSV2 replication and cytopathogenicity in RK13 cells (Exp 12); format: cell-based, Herpes virus 2; details: for Coverage of the bottom read after 24 hours: 1 g = 100% coverage of the bottom; for Cytopathogenicity read after 24 hours: 1d is 100% degeneration
Procedure: RK13 cells and HSV2 v12225 was obtained from Dr. G. Hoddevik, National Institute of Public Health, Oslo, Virus had been stored at −75° C. It was propagated on RK13 cells.
Then the medium, Eagles MEM with 5% FCS, was removed and replaced by new medium.
The inoculated virus was removed by changing the medium the day before titration. […] 1, esperiment 12.

MT4 cells = assay: Clonal growth of MT4 cells in fluid medium, cross dilution of cells and inhibitor (Exp 14); format: cell-based
Procedure: Ten fold cell dilutions indicatet in the last row (Table 1) were undertaken in Falcon tissue culture tray using 6×6 wells.
The 4-OH-OPB dilutions were prepared minutes before being used from 20 mM stock solution in DMSO.
The 10 μM and 3 μM dilutions were made first and each of them were diluted further in 1/10 steps.

With `CCCCC1(O)C(=O)N(c2ccccc2)N(c2ccc(O)cc2)C1=O` (centres unmarked) [4-OH-OPB, 4-butyl-4-hydroxy-2(p-hydroxyphenyl)-1-phenyl-3,5-pyrazolidinedione] the Clonal inhibition ([1]; 0.3 μM added after 24 hours, read after 48 hours) was 0, the Clonal inhibition ([1]; 0.3 μM added immediately, read after 24 hours) was 0 and the Clonal inhibition ([1]; 0.3 μM added immediately, read after 48 hours) was 0. For the same compound, the Clonal inhibition ([1]; 1 μM added after 24 hours, read after 48 hours) was 0, the Clonal inhibition ([1]; 1 μM added immediately, read after 24 hours) was 0 and the Clonal inhibition ([1]; 1 μM added immediately, read after 48 hours) was 0. The Clonal inhibition ([1]; 3 μM added after 24 hours, read after 48 hours) was 0, the Clonal inhibition ([1]; 3 μM added immediately, read after 24 hours) was 0 and the Clonal inhibition ([1]; 3 μM added immediately, read after 48 hours) was 0. For the same compound, the Clonal inhibition ([1]; 10 μM added after 24 hours, read after 48 hours) was 0, the Clonal inhibition ([1]; 10 μM added immediately, read after 24 hours) was “+” and the Clonal inhibition ([1]; 10 μM added immediately, read after 48 hours) was “+”. For the same compound, the Clonal inhibition ([1]; 30 μM added after 24 hours, read after 48 hours) was 0, the Clonal inhibition ([1]; 30 μM added immediately, read after 24 hours) was “+++” and the Clonal inhibition ([1]; 30 μM added immediately, read after 48 hours) was “++”. For the same compound, the “Effect when treated first after 24 hours” value ([1]; Exp 6, BHK21/c13) was “no effect was detected”, the “Concentration with small, but significant effect on clonal inhibition” value ([1]; Exp 6, BHK21/c13, treated immediately on seeding, photograph after 24 hours) was no less than 10 µM and the “Coverage of the bottom read after 2 days” value (HSV1; 0.1 μM) was 1 g. For the same compound, the “Cytopathogenicity read after 2 days” value (HSV1; 0.1 μM) was 0.28 days, the “Cytopathogenicity read after 2 days” value (HSV1; 0.3 μM) was 0.28 days and the “Coverage of the bottom read after 2 days” value (HSV1; 10 μM) was 0.4 g. The “Cytopathogenicity read after 2 days” value (HSV1; 30 μM) was 0 days, the “Concentration found to inhibit satisfactorily” value (HSV1; Exp 11b, new medium after 24 hours, titrated after 48 hours) was 1 µM and the “Concentrations with inhibited production of HSV2” value (HSV2) was “above 0.1 μM”. For the same compound, the “Coverage of the bottom read after 24 hours” value (“Coverage … after 24 hours” for short) (HSV2; 2 μl/well, 0.1 μM) was 1 g, the “Cytopathogenicity read after 24 hours” value (HSV2; 2 μl/well, 0.1 μM) was 0.6 days and the “Coverage … after 24 hours” value (HSV2; 2 μl/well, 0.3 μM) was 1 g. For the same compound, the “Cytopathogenicity read after 24 hours” value (HSV2; 2 μl/well, 0.3 μM) was 0.7 days, the “Coverage … after 24 hours” value (HSV2; 2 μl/well, 1 μM) was 1 g and the “Cytopathogenicity read after 24 hours” value (HSV2; 2 μl/well, 1 μM) was 0.7 days. For the same compound, the “Coverage … after 24 hours” value (HSV2; 2 μl/well, 3 μM) was 0.8 g, the “Cytopathogenicity read after 24 hours” value (HSV2; 2 μl/well, 3 μM) was 0.95 days and the “Coverage … after 24 hours” value (HSV2; 2 μl/well, 10 μM) was 0.9 g. For the same compound, the “Cytopathogenicity read after 24 hours” value (HSV2; 2 μl/well, 10 μM) was 0.95 days, the “Coverage … after 24 hours” value (HSV2; 2 μl/well, 30 μM) was 0.7 g and the “Cytopathogenicity read after 24 hours” value (HSV2; 2 μl/well, 30 μM) was 0.2 days. The “Coverage … after 24 hours” value (HSV2; 8 μl/well, 0.1 μM) was 1 g, the “Cytopathogenicity read after 24 hours” value (HSV2; 8 μl/well, 0.1 μM) was 0.9 days and the “Coverage … after 24 hours” value (HSV2; 8 μl/well, 0.3 μM) was 1 g. The “Cytopathogenicity read after 24 hours” value (HSV2; 8 μl/well, 0.3 μM) was 0.9 days, the “Coverage … after 24 hours” value (HSV2; 8 μl/well, 1 μM) was 1 g and the “Cytopathogenicity read after 24 hours” value (HSV2; 8 μl/well, 1 μM) was 0.9 days. For the same compound, the “Coverage … after 24 hours” value (HSV2; 8 μl/well, 3 μM) was 0.8 g, the “Cytopathogenicity read after 24 hours” value (HSV2; 8 μl/well, 3 μM) was 0.95 days and the “Coverage … after 24 hours” value (HSV2; 8 μl/well, 10 μM) was 0.86 g. For the same compound, the “Cytopathogenicity read after 24 hours” value (HSV2; 8 μl/well, 10 μM) was 0.95 days, the “Coverage … after 24 hours” value (HSV2; 8 μl/well, 30 μM) was 0.7 g and the “Cytopathogenicity read after 24 hours” value (HSV2; 8 μl/well, 30 μM) was 0.2 days. For the same compound, the “Inhibition of HSV2 titre at 3 μM” value (HSV2; titration incubated for 3 days) was “about 3 log” and the “Concentration needed for arresting colony growth: less in cultures with 5000 cells than with 500000 cells” value (MT4 cells) was “about 2 logs”.
